Holding throughout (test): relative viability (nuclei count vs DMSO), 5 days (fraction); higher = more cells survive
Compound in the experiment “AZ628 + Lapatinib”: CC1=C(C=C(C=C1)NC(=O)C2=CC(=CC=C2)C(C)(C)C#N)NC3=CC4=C(C=C3)N=CN(C4=O)C [AZ628] + CS(=O)(=O)CCNCc1ccc(-c2ccc3ncnc(Nc4ccc(OCc5cccc(F)c5)c(Cl)c4)c3c2)o1 [Lapatinib] (partner 2 µM)
In short, it runs like this:
(§1)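 Relative viability equals treated-well nuclei counts divided by vehicle-well nuclei counts. Counts came from 4× images of lung cancer cell lines grown in 1536-well plates for 5 days after pin-tool dosing on the day after seeding. Dosing used one drug alone or a fixed anchor-drug dose plus five library-drug doses (not always all listed) in √10 steps, and values are medians of duplicate plates.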

Compound in the experiment “AZ628 + Foretinib”: CC1=C(C=C(C=C1)NC(=O)C2=CC(=CC=C2)C(C)(C)C#N)NC3=CC4=C(C=C3)N=CN(C4=O)C [AZ628] + COc1cc2c(Oc3ccc(NC(=O)C4(C(=O)Nc5ccc(F)cc5)CC4)cc3F)ccnc2cc1OCCCN1CCOCC1 [Foretinib] (partner 0.25 µM)
In short, it runs like this: as §1

Compound in the experiment “AZ628 + Bortezomib”: CC1=C(C=C(C=C1)NC(=O)C2=CC(=CC=C2)C(C)(C)C#N)NC3=CC4=C(C=C3)N=CN(C4=O)C [AZ628] + CC(C)C[C@H](NC(=O)[C@H](Cc1ccccc1)NC(=O)c1cnccn1)B(O)O [Bortezomib] (partner 0.002 µM)
In outline: as §1

Compound in the experiment “QS11 + Palbociclib”: C1CC2=C(C1)C=C(C=C2)OC3=NC(=C4C(=N3)N(C=N4)CC5=CC=C(C=C5)C6=CC=CC=C6)N[C@@H](CC7=CC=CC=C7)CO [QS11] + CC(=O)c1c(C)c2cnc(Nc3ccc(N4CCNCC4)cn3)nc2n(C2CCCC2)c1=O [Palbociclib] (partner 0.5 µM)
In outline: as §1

Consider seven cell lines from the supplement of paper PMC10307832.

In the case of NCI-H1355, the relative viability with AZ628 + Lapatinib (first compound 0.08 µM) turned out to be 0.974; with AZ628 + Lapatinib (first compound 0.253 µM), 0.934; in the experiment with AZ628 + Lapatinib (first compound 0.8 µM), 0.947; with AZ628 + Lapatinib (first compound 2.53 µM) it was 0.944; with AZ628 + Lapatinib (first compound 8 µM), 0.862; with AZ628 + Foretinib (first compound 0.08 µM), 0.976. For the same cell line, the relative viability with AZ628 + Foretinib (first compound 0.253 µM) was 0.937; with AZ628 + Foretinib (first compound 0.8 µM), 1.03; with AZ628 + Foretinib (first compound 2.53 µM) it was 1.02; with AZ628 + Foretinib (first compound 8 µM), 0.871; with AZ628 + Bortezomib (first compound 0.08 µM) it was 1.21; with AZ628 + Bortezomib (first compound 0.253 µM) it was 1.03. The relative viability with AZ628 + Bortezomib (first compound 0.8 µM) came out at 1.12; in the experiment with AZ628 + Bortezomib (first compound 2.53 µM), 1.12; in the experiment with AZ628 + Bortezomib (first compound 8 µM) it was 1.1; with QS11 + Palbociclib (first compound 0.08 µM), 0.43; with QS11 + Palbociclib (first compound 0.253 µM), 0.314; in the experiment with QS11 + Palbociclib (first compound 0.8 µM) it was 0.299. Further, the relative viability with QS11 + Palbociclib (first compound 2.53 µM) stood at 0.35; with QS11 + Palbociclib (first compound 8 µM) it was 0.38.
As to NCI-H1734, the relative viability turned out to be 1.08 with AZ628 + Lapatinib (first compound 0.08 µM); 1.07 with AZ628 + Lapatinib (first compound 0.253 µM); 0.896 with AZ628 + Lapatinib (first compound 0.8 µM); 0.908 with AZ628 + Lapatinib (first compound 2.53 µM); 0.699 with AZ628 + Lapatinib (first compound 8 µM); 0.667 with AZ628 + Foretinib (first compound 0.08 µM). Moreover, the relative viability in the experiment with AZ628 + Foretinib (first compound 0.253 µM) was 0.759; in the experiment with AZ628 + Foretinib (first compound 0.8 µM) it was 0.686; in the experiment with AZ628 + Foretinib (first compound 2.53 µM) it was 0.753; with AZ628 + Foretinib (first compound 8 µM), 0.416; in the experiment with AZ628 + Bortezomib (first compound 0.08 µM), 0.969; with AZ628 + Bortezomib (first compound 0.253 µM) it was 0.809. The relative viability with AZ628 + Bortezomib (first compound 0.8 µM) came to 0.903; with AZ628 + Bortezomib (first compound 2.53 µM), 0.756; in the experiment with AZ628 + Bortezomib (first compound 8 µM), 0.562; in the experiment with QS11 + Palbociclib (first compound 0.08 µM), 0.374; with QS11 + Palbociclib (first compound 0.253 µM), 0.389; in the experiment with QS11 + Palbociclib (first compound 0.8 µM), 0.31. Besides, the relative viability came out at 0.32 in the experiment with QS11 + Palbociclib (first compound 2.53 µM) and 0.324 with QS11 + Palbociclib (first compound 8 µM).
Consider EPLC-272H, for which the relative viability in the experiment with AZ628 + Lapatinib (first compound 0.08 µM) stood at 0.837; with AZ628 + Lapatinib (first compound 0.253 µM), 0.88; with AZ628 + Lapatinib (first compound 0.8 µM), 1.08; in the experiment with AZ628 + Lapatinib (first compound 2.53 µM) it was 0.932; with AZ628 + Lapatinib (first compound 8 µM), 0.54; with AZ628 + Foretinib (first compound 0.08 µM), 0.671. Moreover, the relative viability turned out to be 0.625 with AZ628 + Foretinib (first compound 0.253 µM); 0.654 in the experiment with AZ628 + Foretinib (first compound 0.8 µM); 0.581 with AZ628 + Foretinib (first compound 2.53 µM); 0.309 in the experiment with AZ628 + Foretinib (first compound 8 µM); 0.87 in the experiment with AZ628 + Bortezomib (first compound 0.08 µM); 0.803 with AZ628 + Bortezomib (first compound 0.253 µM). For the same cell line, the relative viability with AZ628 + Bortezomib (first compound 0.8 µM) worked out at 0.797; in the experiment with AZ628 + Bortezomib (first compound 2.53 µM), 0.525; with AZ628 + Bortezomib (first compound 8 µM), 0.877; in the experiment with QS11 + Palbociclib (first compound 0.253 µM), 0.315; with QS11 + Palbociclib (first compound 0.8 µM), 0.31; in the experiment with QS11 + Palbociclib (first compound 2.53 µM), 0.305. Further, the relative viability in the experiment with QS11 + Palbociclib (first compound 8 µM) was 0.31.
As for LXF-289, the relative viability with AZ628 + Lapatinib (first compound 0.08 µM) was 0.882; with AZ628 + Lapatinib (first compound 0.253 µM), 0.884; in the experiment with AZ628 + Lapatinib (first compound 0.8 µM), 0.79; with AZ628 + Lapatinib (first compound 2.53 µM), 0.843; in the experiment with AZ628 + Lapatinib (first compound 8 µM), 0.58; with AZ628 + Foretinib (first compound 0.08 µM) it was 1. In addition, the relative viability came to 0.942 with AZ628 + Foretinib (first compound 0.253 µM); 0.879 with AZ628 + Foretinib (first compound 0.8 µM); 0.961 with AZ628 + Foretinib (first compound 2.53 µM); 0.641 with AZ628 + Foretinib (first compound 8 µM); 0.994 in the experiment with AZ628 + Bortezomib (first compound 0.08 µM); 1.03 with AZ628 + Bortezomib (first compound 0.253 µM). Besides, the relative viability was 0.915 with AZ628 + Bortezomib (first compound 0.8 µM); 0.917 with AZ628 + Bortezomib (first compound 2.53 µM); 0.648 with AZ628 + Bortezomib (first compound 8 µM); 0.639 in the experiment with QS11 + Palbociclib (first compound 0.08 µM); 0.634 with QS11 + Palbociclib (first compound 0.253 µM); 0.502 with QS11 + Palbociclib (first compound 0.8 µM). For the same cell line, the relative viability came out at 0.564 with QS11 + Palbociclib (first compound 2.53 µM) and 0.621 with QS11 + Palbociclib (first compound 8 µM).
As for NCI-H520, the relative viability is 0.901 with AZ628 + Lapatinib (first compound 0.08 µM); 0.857 with AZ628 + Lapatinib (first compound 0.253 µM); 0.743 with AZ628 + Lapatinib (first compound 0.8 µM); 0.778 in the experiment with AZ628 + Lapatinib (first compound 2.53 µM); 0.766 with AZ628 + Lapatinib (first compound 8 µM); 0.834 in the experiment with AZ628 + Foretinib (first compound 0.08 µM). In addition, the relative viability worked out at 0.7 with AZ628 + Foretinib (first compound 0.253 µM); 0.76 in the experiment with AZ628 + Foretinib (first compound 0.8 µM); 0.802 with AZ628 + Foretinib (first compound 2.53 µM); 0.631 in the experiment with AZ628 + Foretinib (first compound 8 µM); 0.732 in the experiment with AZ628 + Bortezomib (first compound 0.08 µM); 0.476 with AZ628 + Bortezomib (first compound 0.253 µM). In addition, the relative viability turned out to be 0.502 in the experiment with AZ628 + Bortezomib (first compound 0.8 µM); 0.591 with AZ628 + Bortezomib (first compound 2.53 µM); 0.571 with AZ628 + Bortezomib (first compound 8 µM); 0.211 with QS11 + Palbociclib (first compound 0.08 µM); 0.208 with QS11 + Palbociclib (first compound 0.253 µM); 0.268 with QS11 + Palbociclib (first compound 0.8 µM). In addition, the figures for the relative viability with QS11 + Palbociclib (first compound 2.53 µM) and in the experiment with QS11 + Palbociclib (first compound 8 µM) were 0.208 and 0.204, respectively.
H3255: the relative viability with AZ628 + Lapatinib (first compound 0.08 µM) came to 0.258; in the experiment with AZ628 + Lapatinib (first compound 0.253 µM), 0.256; with AZ628 + Lapatinib (first compound 0.8 µM), 0.292; with AZ628 + Lapatinib (first compound 2.53 µM), 0.269; in the experiment with AZ628 + Lapatinib (first compound 8 µM) it was 0.251; with AZ628 + Foretinib (first compound 0.08 µM), 0.958. Besides, the relative viability with AZ628 + Foretinib (first compound 0.253 µM) was 0.899; with AZ628 + Foretinib (first compound 0.8 µM), 0.78; with AZ628 + Foretinib (first compound 2.53 µM), 0.96; with AZ628 + Foretinib (first compound 8 µM) it was 0.661; with AZ628 + Bortezomib (first compound 0.08 µM) it was 0.837; with AZ628 + Bortezomib (first compound 0.253 µM), 0.621. Further, the relative viability with AZ628 + Bortezomib (first compound 0.8 µM) was determined as 0.811; with AZ628 + Bortezomib (first compound 2.53 µM), 0.81; with AZ628 + Bortezomib (first compound 8 µM) it was 0.66; in the experiment with QS11 + Palbociclib (first compound 0.08 µM) it was 0.327; in the experiment with QS11 + Palbociclib (first compound 0.253 µM), 0.363; in the experiment with QS11 + Palbociclib (first compound 0.8 µM), 0.301. The relative viability with QS11 + Palbociclib (first compound 2.53 µM) stood at 0.31; with QS11 + Palbociclib (first compound 8 µM), 0.298.
As for NCI-H460, the relative viability with AZ628 + Lapatinib (first compound 0.08 µM) was determined as 1.08; with AZ628 + Lapatinib (first compound 0.253 µM), 0.868; in the experiment with AZ628 + Lapatinib (first compound 0.8 µM) it was 0.853; in the experiment with AZ628 + Lapatinib (first compound 2.53 µM), 0.87; with AZ628 + Lapatinib (first compound 8 µM), 0.559; with AZ628 + Foretinib (first compound 0.08 µM), 0.978. The relative viability with AZ628 + Foretinib (first compound 0.253 µM) worked out at 0.996; with AZ628 + Foretinib (first compound 0.8 µM), 0.974; with AZ628 + Foretinib (first compound 2.53 µM) it was 1.02; with AZ628 + Foretinib (first compound 8 µM) it was 0.54; with AZ628 + Bortezomib (first compound 0.08 µM) it was 1.18; with AZ628 + Bortezomib (first compound 0.253 µM), 1.13. Besides, the relative viability with AZ628 + Bortezomib (first compound 0.8 µM) was found to be 0.8; with AZ628 + Bortezomib (first compound 2.53 µM), 0.994; with AZ628 + Bortezomib (first compound 8 µM), 0.952; with QS11 + Palbociclib (first compound 0.08 µM), 0.426; with QS11 + Palbociclib (first compound 0.253 µM), 0.093; with QS11 + Palbociclib (first compound 0.8 µM), 0.0461. Further, the values for the relative viability in the experiment with QS11 + Palbociclib (first compound 2.53 µM) and with QS11 + Palbociclib (first compound 8 µM) were 0.0817 and 0.0731, respectively.
